In brackets after ≈: the same amount, converted by molar mass. Activity calls are given as the source filed them. No cut-off for these calls is given here.
Key:
[1] = Inhibition of P-gp efflux in MDCKII-MDR1 cells using calcein-AM as substrate assessed as intracellular calcein fluorescence preincubated for 15 mins followed by substrate addition and measured by fluorescence based assay; assay type: cell-based; settings: Canis lupus familiaris
Staphylococcus aureus [2] = assay: Antibacterial activity against multi drug-resistant Staphylococcus aureus USA300 FPR3757 assessed as inhibition of visible growth incubated for 20 to 24 hrs by microbroth serial dilution assay; assay type: functional; settings: time 20-24 hrs, read-out: MIC100
Streptococcus pneumoniae = assay: Antibacterial activity against Streptococcus pneumoniae assessed as inhibition of visible growth incubated for 20 to 24 hrs by microbroth serial dilution assay; assay type: functional; settings: time 20-24 hrs, read-out: MIC100
Enterococcus faecalis = assay: Antibacterial activity against Enterococcus faecalis assessed as inhibition of visible growth incubated for 20 to 24 hrs by microbroth serial dilution assay; assay type: functional; settings: time 20-24 hrs, read-out: MIC100
Enterococcus faecium [3] = assay: Antibacterial activity against Vancomycin-resistant Enterococcus faecium assessed as inhibition of visible growth incubated for 20 to 24 hrs by microbroth serial dilution assay; assay type: functional; settings: time 20-24 hrs, read-out: MIC100
Enterococcus faecium [4] = assay: Antibacterial activity against Linezolid/Ampicillin/ciprofloxacin/Vancomycin-resistant Enterococcus faecium assessed as inhibition of visible growth incubated for 20 to 24 hrs by microbroth serial dilution assay; assay type: functional; settings: time 20-24 hrs, read-out: MIC100
Escherichia coli = assay: Antibacterial activity against Escherichia coli assessed as inhibition of visible growth incubated for 20 to 24 hrs by microbroth serial dilution assay; assay type: functional, organism-based; settings: time 20-24 hrs
Listeria = assay: Antibacterial activity against Listeria assessed as inhibition of visible growth incubated for 20 to 24 hrs by microbroth serial dilution assay; assay type: functional, organism-based; settings: time 20-24 hrs
[5] = system: Staphylococcus epidermidis; assay: Antibacterial activity against Staphylococcus epidermidis assessed as inhibition of visible growth incubated for 20 to 24 hrs by microbroth serial dilution assay; assay type: functional, organism-based; settings: time 20-24 hrs
[6] = target: Voltage-gated inwardly rectifying potassium channel KCNH2 (Homo sapiens, UniProt Q12809); assay: Inhibition of hERG expressed in HEK293 cells assessed as tail current measured after 8 mins by automated whole-cell Qpatch Clamp assay
Voltage-gated inwardly rectifying potassium channel KCNH2, sequence (Q12809 whole entry): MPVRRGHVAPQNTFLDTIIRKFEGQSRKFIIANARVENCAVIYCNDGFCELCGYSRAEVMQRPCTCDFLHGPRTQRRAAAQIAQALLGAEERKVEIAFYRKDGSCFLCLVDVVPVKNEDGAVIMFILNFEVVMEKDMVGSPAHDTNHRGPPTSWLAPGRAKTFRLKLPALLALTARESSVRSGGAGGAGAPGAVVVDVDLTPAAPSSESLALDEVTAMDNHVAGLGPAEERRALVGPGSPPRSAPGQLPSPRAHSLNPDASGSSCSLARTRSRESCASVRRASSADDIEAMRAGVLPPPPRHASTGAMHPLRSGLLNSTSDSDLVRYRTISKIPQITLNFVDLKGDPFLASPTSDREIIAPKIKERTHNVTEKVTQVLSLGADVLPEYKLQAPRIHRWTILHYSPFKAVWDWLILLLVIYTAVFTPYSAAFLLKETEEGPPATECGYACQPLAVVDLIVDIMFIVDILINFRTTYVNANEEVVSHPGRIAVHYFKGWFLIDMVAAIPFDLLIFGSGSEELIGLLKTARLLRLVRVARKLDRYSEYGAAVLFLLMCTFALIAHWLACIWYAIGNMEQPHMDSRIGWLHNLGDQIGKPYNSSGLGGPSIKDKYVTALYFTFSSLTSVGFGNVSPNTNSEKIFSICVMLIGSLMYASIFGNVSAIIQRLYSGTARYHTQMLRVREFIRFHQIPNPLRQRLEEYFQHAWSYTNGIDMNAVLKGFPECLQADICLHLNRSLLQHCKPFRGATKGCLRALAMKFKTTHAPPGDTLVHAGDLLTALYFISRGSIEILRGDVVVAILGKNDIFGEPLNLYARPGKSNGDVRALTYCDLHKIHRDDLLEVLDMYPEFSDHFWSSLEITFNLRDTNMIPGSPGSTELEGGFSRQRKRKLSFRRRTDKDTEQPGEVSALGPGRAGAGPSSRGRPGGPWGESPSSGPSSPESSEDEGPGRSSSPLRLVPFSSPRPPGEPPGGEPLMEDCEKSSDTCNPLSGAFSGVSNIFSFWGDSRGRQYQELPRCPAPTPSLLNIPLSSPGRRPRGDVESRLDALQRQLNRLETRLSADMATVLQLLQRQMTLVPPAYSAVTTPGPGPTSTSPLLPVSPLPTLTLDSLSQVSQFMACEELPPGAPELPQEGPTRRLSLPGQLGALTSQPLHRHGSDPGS

hERG (KCNH2) = hERG (KCNH2) (Homo sapiens, UniProt Q12809); assay: Inhibition of hERG expressed in HEK293 cells assessed as tail current at 60 uM measured after 8 mins by automated whole-cell Qpatch Clamp assay relative to control; settings: HEK293 cells that express hERG
hERG (KCNH2), sequence (Q12809 whole entry): as above

in vitro [7] = settings: mouse, liver microsomes
in vitro [8] = settings: mouse, liver microsomes; remark: listed apart in the source
in vitro [9] = settings: human, liver microsomes
in vitro [10] = settings: human, liver microsomes; remark: listed apart in the source
Staphylococcus aureus [11] = assay: Antibacterial activity against multi drug-resistant Staphylococcus aureus USA300 FPR3757 assessed as reduction in bacterial growth at 1 times of MIC concentration measured after 24 hrs by time-kill assay; assay type: functional, organism-based
Staphylococcus aureus [12] = assay: (§1) Induction of resistant development in -(6-(6-(Piperazin-1-y1)-9H-purin-9-y)methyl)pyridin-3-y1)-1H-1,2,3-triazol-1-yl)-22-deoxypleuromutilin-16 passages resistance developed Staphylococcus aureus USA300 FPR3757 assessed as fold increase in MIC at sub-MIC concentration measured after 5 passages with conjugate by serial passage assay; assay type: functional
Staphylococcus aureus [13] = assay: as §1, with “after 9” for “after 5”; assay type: functional
Staphylococcus aureus [14] = assay: as §1, with “after 13” for “after 5”; assay type: functional
Staphylococcus aureus [15] = assay: as §1, with “after 18” for “after 5”; assay type: functional
Staphylococcus aureus [16] = assay: as §1, with “after 22” for “after 5”; assay type: functional
Staphylococcus aureus [17] = assay: as §1, with “after 25” for “after 5”; assay type: functional
Staphylococcus aureus [18] = assay: as §1, with “after 28” for “after 5”; assay type: functional
Staphylococcus aureus [19] = assay: Induction of resistant development in lefamulin 5 passages resistance developed Staphylococcus aureus USA300 FPR3757 assessed as fold increase in MIC at sub-MIC concentration measured after 5 passages with conjugate by serial passage assay; assay type: functional
Staphylococcus aureus [20] = assay: Induction of resistant development in lefamulin 5 passages resistance developed Staphylococcus aureus USA300 FPR3757 assessed as fold increase in MIC at sub-MIC concentration measured after 9 passages with conjugate by serial passage assay; assay type: functional
Staphylococcus aureus [21] = assay: Induction of resistant development in lefamulin 5 passages resistance developed Staphylococcus aureus USA300 FPR3757 assessed as fold increase in MIC at sub-MIC concentration measured after 13 passages with conjugate by serial passage assay; assay type: functional
Staphylococcus aureus [22] = assay: Induction of resistant development in lefamulin 5 passages resistance developed Staphylococcus aureus USA300 FPR3757 assessed as fold increase in MIC at sub-MIC concentration measured after 18 passages with conjugate by serial passage assay; assay type: functional
Staphylococcus aureus [23] = assay: Induction of resistant development in lefamulin 5 passages resistance developed Staphylococcus aureus USA300 FPR3757 assessed as fold increase in MIC at sub-MIC concentration measured after 22 passages with conjugate by serial passage assay; assay type: functional
Staphylococcus aureus [24] = assay: Induction of resistant development in lefamulin 5 passages resistance developed Staphylococcus aureus USA300 FPR3757 assessed as fold increase in MIC at sub-MIC concentration measured after 25 passages with conjugate by serial passage assay; assay type: functional
Staphylococcus aureus [25] = assay: Induction of resistant development in lefamulin 5 passages resistance developed Staphylococcus aureus USA300 FPR3757 assessed as fold increase in MIC at sub-MIC concentration measured after 28 passages with conjugate by serial passage assay; assay type: functional
Staphylococcus aureus [26] = assay: Induction of resistant development in linezolid 5 passages resistance developed Staphylococcus aureus USA300 FPR3757 assessed as fold increase in MIC at sub-MIC concentration measured after 5 passages with conjugate by serial passage assay; assay type: functional
Staphylococcus aureus [27] = assay: Induction of resistant development in linezolid 5 passages resistance developed Staphylococcus aureus USA300 FPR3757 assessed as fold increase in MIC at sub-MIC concentration measured after 9 passages with conjugate by serial passage assay; assay type: functional
Staphylococcus aureus [28] = assay: Induction of resistant development in linezolid 5 passages resistance developed Staphylococcus aureus USA300 FPR3757 assessed as fold increase in MIC at sub-MIC concentration measured after 13 passages with conjugate by serial passage assay; assay type: functional
Staphylococcus aureus [29] = assay: Induction of resistant development in linezolid 5 passages resistance developed Staphylococcus aureus USA300 FPR3757 assessed as fold increase in MIC at sub-MIC concentration measured after 18 passages with conjugate by serial passage assay; assay type: functional
Staphylococcus aureus [30] = assay: Induction of resistant development in linezolid 5 passages resistance developed Staphylococcus aureus USA300 FPR3757 assessed as fold increase in MIC at sub-MIC concentration measured after 22 passages with conjugate by serial passage assay; assay type: functional
Staphylococcus aureus [31] = assay: Induction of resistant development in linezolid 5 passages resistance developed Staphylococcus aureus USA300 FPR3757 assessed as fold increase in MIC at sub-MIC concentration measured after 25 passages with conjugate by serial passage assay; assay type: functional
Staphylococcus aureus [32] = assay: Induction of resistant development in linezolid 5 passages resistance developed Staphylococcus aureus USA300 FPR3757 assessed as fold increase in MIC at sub-MIC concentration measured after 28 passages with conjugate by serial passage assay; assay type: functional
Staphylococcus aureus [33] = assay: In vivo antibacterial activity against methicillin susceptible Staphylococcus aureus ATCC 25923 infected sepsis/peritonitis infection model assessed as reduction in bacterial burden in peritoneum at 80 mg/kg, sc twice at 1 hr and 3 hrs measured after 6 hrs; assay type: functional
Staphylococcus aureus [34] = assay: In vivo antibacterial activity against methicillin susceptible Staphylococcus aureus ATCC 25923 infected sepsis/peritonitis infection model assessed as reduction in bacterial burden in blood at 80 mg/kg, sc twice at 1 hr and 3 hrs measured after 6 hrs; assay type: functional

Compound: C=C[C@]1(C)C[C@@H](OC(=O)Cn2cc(-c3ccc(Cn4cnc5c(N)ncnc54)cc3)nn2)[C@]2(C)[C@H](C)CC[C@]3(CCC(=O)[C@H]32)[C@@H](C)[C@@H]1O
- IC50 [1]: 36 µM
- MIC (Staphylococcus aureus [2]): 0.03 µg/mL (≈ 0.046 µM)
- MIC (Streptococcus pneumoniae): 0.5 µg/mL (≈ 0.766 µM)
- MIC (Enterococcus faecalis): 0.25 µg/mL (≈ 0.383 µM)
- MIC (Enterococcus faecium [3]): 0.12 µg/mL (≈ 0.184 µM)
- MIC (Enterococcus faecium [4]): 0.12 µg/mL (≈ 0.184 µM)
- Activity (Escherichia coli): inactive
- Activity (Listeria): inactive
- Activity [5]: inactive
- IC50 [6]: > 200 µM
- inhibition at 8 min, 60 µM (hERG (KCNH2)): 26.3%
- half-life at 0.5 h, 1 µM (in vitro [7]): < 0.5 min
- CLint scaled at 0.5 h, 1 µM (in vitro [8]): > 600 L/h/kg
- half-life at 0.5 h, 1 µM (in vitro [9]): 1.2 min
- CLint scaled at 0.5 h, 1 µM (in vitro [10]): 305 L/h/kg

Compound: C=C[C@]1(C)C[C@@H](OC(=O)Cn2cc(-c3ccc(Cn4cnc5c(N6CCNCC6)ncnc54)nc3)nn2)[C@]2(C)[C@H](C)CC[C@]3(CCC(=O)[C@H]32)[C@@H](C)[C@@H]1O
- Activity (Staphylococcus aureus [11]): inactive
- fold change (FC) (Staphylococcus aureus [12]): 8
- fold change (FC) (Staphylococcus aureus [13]): 8
- fold change (FC) (Staphylococcus aureus [14]): 16
- fold change (FC) (Staphylococcus aureus [15]): 32
- fold change (FC) (Staphylococcus aureus [16]): 32
- fold change (FC) (Staphylococcus aureus [17]): 64
- fold change (FC) (Staphylococcus aureus [18]): 64
- fold change (FC) (Staphylococcus aureus [19]): 4
- fold change (FC) (Staphylococcus aureus [20]): 16
- fold change (FC) (Staphylococcus aureus [21]): 32
- fold change (FC) (Staphylococcus aureus [22]): 32
- fold change (FC) (Staphylococcus aureus [23]): 32
- fold change (FC) (Staphylococcus aureus [24]): 64
- fold change (FC) (Staphylococcus aureus [25]): 128
- fold change (FC) (Staphylococcus aureus [26]): 4
- fold change (FC) (Staphylococcus aureus [27]): 8
- fold change (FC) (Staphylococcus aureus [28]): 16
- fold change (FC) (Staphylococcus aureus [29]): 8
- fold change (FC) (Staphylococcus aureus [30]): 32
- fold change (FC) (Staphylococcus aureus [31]): 32
- fold change (FC) (Staphylococcus aureus [32]): 32

Compound: C=C[C@]1(C)C[C@@H](OC(=O)Cn2cc(-c3ccc(Cn4cnc5c(N6CCNCC6)ncnc54)nc3)nn2)[C@]2(C)[C@H](C)CC[C@]3(CCC(=O)[C@H]32)[C@@H](C)[C@@H]1O.Cl.Cl
- Activity (Staphylococcus aureus [33]): 1 log10FFU/ml
- Activity (Staphylococcus aureus [34]): 2 log10FFU/ml
